Measured values from article PMC4464647, “ANO1 (TMEM16A) in pancreatic ductal adenocarcinoma (PDAC)” (Pflugers Archiv, 2014).

What was measured:
Assay type in all cases: cell-based, human
[1] = system: BxPC-3 cells; test: Fura-2 measurement of free intracellular calcium, ATP stimulation; conditions: BxPC-3, ATP 10 μM, no inhibitor
Procedure: (§1) HPDE and BxPC-3 cells were incubated with 2 μM Fura-2 AM (Sigma-Aldrich, Denmark) for 30 min at 37 °C. Cells were subsequently washed with Krebs solution containing (in mM) 150 NaCl, 6 KCl, 1.5 CaCl2, 1 MgCl2, 10 glucose, and 10 HEPES; pH was adjusted to 7.4 using NaOH. Coverslips were mounted on a recording chamber. In the beginning of the experiment, cells were perfused with Krebs solution at 4 ml/min until baseline was stable. […] Changes in [Ca^2+]i were measured by a TIRF iMIC microscope (TILL Photonics, Germany). Fura-2 AM loaded cells were illuminated at 340 nm for 80 ms and 380 nm for 80 ms at 1 s intervals using a TILL Polychrome monochromator. Five hundred-nanometer emission images were captured by an image-intensifying, charge-coupled device (CCD) camera (TILL Photonics, Germany) and digitized by an image processing system (TILL Photonics, Germany). The monochromator and CCD camera were controlled by LA Live Acquisition software, which was also used for image analysis. The [Ca^2+]i was presented as the Fura-2 ratio of the fluorescence signals obtained at 340/380 nm.
(§2) Fig. 8 Cl^− channel inhibitors alter ATP-induced Ca^2+ signals. Intracellular Ca^2+ measurements in FURA-2 loaded HPDE and BxPC-3 cells. a Representative single-cell traces of individual experiments. Different substances were applied as indicated. […] (n) = number of individual experiments; each containing between 5–45 single cells.***p ≤ 0.001 when compared to no inhibitor condition; ^## p ≤ 0.01 when compared with HPDE no inhibitor
(§3) Activation of CaCC requires an increase in [Ca^2+]i, which can be achieved by stimulation of receptors such as purinergic receptors. Therefore, we studied the effect of Cl^− channel inhibitors on changes in [Ca^2+]i induced by purinergic signaling. We chose HPDE cells with very low expression levels of ANO1 and the highly ANO1 overexpressing cell line BxPC-3 for investigation. Fura-2 loaded HPDE and BxPC-3 cells were stimulated with ATP (10 μM) (Fig. 8) or exposed to the inhibitor prior to stimulation. ATP stimulation caused a 0.46 ± 0.03 peak increase in the Fura-2 ratio in HPDE and 0.55 ± 0.02 in BxPC-3 cells. […] However, no effect of the inhibitor on basal Ca^2+ level was observed.

[2] = system: HPDE cells; test: as above; conditions: ATP 10 μM, no inhibitor
Procedure: as §1, §2, §3

[3] = system: HPDE, Capan-1, AsPC-1, and BxPC-3 cells; test: BrdU incorporation cell proliferation assay, all tested cell lines; conditions: all tested cells, gemcitabine 20 μM, data not shown
Procedure: To assess cell proliferation and apoptosis, cells were plated in duplicates on a 96-well plate and incubated in 100 μl of the cell line appropriate media described above. Cells were transfected with siRNA soon after complete attachment (approx. 3 h after seeding). Cells were treated with vehicle, 20 μM gemcitabine, 20 μM T16Ainh-A01, or 10 μM free NS3728 (see below) after culture in a humidified 37 °C and 5 % CO2 incubator overnight. BrdU incorporation was measured using Cell Proliferation ELISA, BrdU (chemiluminescent) (Roche Diagnostics A/S, Denmark) following the manufacturer’s instructions. Caspases 3, 6, and 7 activation was evaluated using Homogeneous Caspases Assay (fluorimetric) (Roche Diagnostics A/S, Denmark).
Fig. 7 VRAC, but not ANO1, regulates cellular proliferation. a Summary of BrdU incorporation in HPDE, Capan-1, AsPC-1, and BxPC-3 cells after various treatments as indicated. Cells were transfected shortly after complete attachment (approx. 3 h) and BrdU incorporation was assessed 36 h after transfection. To investigate effect of inhibitors, cells were incubated for 24 h with respective inhibitor. Values shown are relative to appropriate control. Data shown represents mean ± s.e.m. of n = 4–6 individual experiments. **p ≤ 0.01 and ***p ≤ 0.001 when compared with control

SMILES	peak increase in the Fura-2 ratio [1]	peak increase in the Fura-2 ratio [2]	proliferation (BrdU incorporation) [3]
Nc1ncnc2c1ncn2[C@@H]1O[C@H](COP(=O)(O)OP(=O)(O)OP(=O)(O)O)[C@@H](O)[C@H]1O [ATP]	0.55 ± 0.02	0.46 ± 0.03	
Nc1ccn([C@@H]2O[C@H](CO)[C@@H](O)C2(F)F)c(=O)n1 [gemcitabine]			almost complete inhibition of proliferation
